Results reported in the NIST ThermoML archive (doi:10.1016/j.jct.2012.03.034).

Test: xn = mol fraction of the nth substance listed
Details: 101 kPa, Liquid; for speed of sound: Linear variable-path acoustic interferometer; for mass density: Vibrating tube method; for viscosity: dual vibrating plate viscometer, AandD Co. Ltd Model SV-10

CC(=O)[O-].CC[NH2+]CC [diethylammonium acetate] + CN1CCCC1=O
Details | mass density [kg/m3] | speed of sound [m/s] | viscosity [mPa·s]
298.15 K, x1 = 0.0234 | 1026.53 | 1570 | 1.83
298.15 K, x1 = 0.0473 | 1027.19 | 1570 | 1.82
298.15 K, x1 = 0.1188 | 1028.41 | 1576 | 2.26
298.15 K, x1 = 0.1668 | 1029.09 | 1575 | 2.67
298.15 K, x1 = 0.2393 | 1029.73 | 1563 | 3.57
298.15 K, x1 = 0.3616 | 1030.18 | 1527 | 5.62
298.15 K, x1 = 0.411 | 1030.19 | 1510 | 6.49
298.15 K, x1 = 0.4856 | 1029.95 | 1487 | 7.94
298.15 K, x1 = 0.6115 | 1028.88 | 1458 | 10.53
298.15 K, x1 = 0.7391 | 1027.18 | 1454 | 13.14
298.15 K, x1 = 0.8686 | 1024.96 | 1486 | 15.33
298.15 K, x1 = 0.9493 | 1023.14 | 1539 | 16.26
298.15 K, x1 = 0.9758 | 1022.3 | 1562 | 16.41
298.15 K, x1 = 1 | 1021.41 | 1608 | 16.36
303.15 K, x1 = 0.0234 | 1024.14 | 1555 | 1.6
303.15 K, x1 = 0.0473 | 1024.34 | 1557 | 1.66
303.15 K, x1 = 0.1188 | 1025.34 | 1563 | 2.03
303.15 K, x1 = 0.1668 | 1025.85 | 1565 | 2.34
303.15 K, x1 = 0.2393 | 1026.2 | 1556 | 3.09
303.15 K, x1 = 0.3616 | 1026.29 | 1523 | 4.89
303.15 K, x1 = 0.411 | 1026.22 | 1508 | 5.6
303.15 K, x1 = 0.4856 | 1025.78 | 1488 | 6.88
303.15 K, x1 = 0.6115 | 1024.47 | 1460 | 9.13
303.15 K, x1 = 0.7391 | 1022.47 | 1458 | 11.3
303.15 K, x1 = 0.8686 | 1019.99 | 1494 | 13.05
303.15 K, x1 = 0.9493 | 1018.04 | 1552 | 13.74
303.15 K, x1 = 0.9758 | 1017.29 | 1574 | 13.82
303.15 K, x1 = 1 | 1016.52 | 1612 | 13.64
308.15 K, x1 = 0.0234 | 1019.65 | 1531 | 1.48
308.15 K, x1 = 0.0473 | 1019.91 | 1536 | 1.67
308.15 K, x1 = 0.1188 | 1020.3 | 1546 | 1.87
308.15 K, x1 = 0.1668 | 1020.67 | 1548 | 2.15
308.15 K, x1 = 0.2393 | 1020.89 | 1542 | 2.84
308.15 K, x1 = 0.3616 | 1020.97 | 1514 | 4.45
308.15 K, x1 = 0.411 | 1020.77 | 1502 | 5.1
308.15 K, x1 = 0.4856 | 1020.41 | 1484 | 6.24
308.15 K, x1 = 0.6115 | 1019.23 | 1462 | 8.23
308.15 K, x1 = 0.7391 | 1017.4 | 1463 | 10.18
308.15 K, x1 = 0.8686 | 1015.03 | 1501 | 11.58
308.15 K, x1 = 0.9493 | 1013.14 | 1555 | 12.1
308.15 K, x1 = 0.9758 | 1012.47 | 1580 | 12.16
308.15 K, x1 = 1 | 1011.87 | 1616 | 11.83
313.15 K, x1 = 0.0234 | 1014.97 | 1527 | 1.37
313.15 K, x1 = 0.0473 | 1015.32 | 1532 | 1.44
313.15 K, x1 = 0.1188 | 1015.77 | 1544 | 1.75
313.15 K, x1 = 0.1668 | 1016.03 | 1547 | 1.98
313.15 K, x1 = 0.2393 | 1016.53 | 1543 | 2.61
313.15 K, x1 = 0.3616 | 1016.79 | 1520 | 4.05
313.15 K, x1 = 0.411 | 1016.77 | 1509 | 4.66
313.15 K, x1 = 0.4856 | 1016.52 | 1494 | 5.67
313.15 K, x1 = 0.6115 | 1015.76 | 1473 | 7.42
313.15 K, x1 = 0.7391 | 1014.43 | 1477 | 9.06
313.15 K, x1 = 0.8686 | 1012.59 | 1515 | 10.26
313.15 K, x1 = 0.9493 | 1010.98 | 1567 | 10.62
313.15 K, x1 = 0.9758 | 1010.43 | 1592 | 10.57
313.15 K, x1 = 1 | 1010.08 | 1617 | 10.02

CC(=O)O.CCN(CC)CC [triethylammonium acetate] + CN1CCCC1=O
Details | mass density [kg/m3] | speed of sound [m/s] | viscosity [mPa·s]
298.15 K, x1 = 0.0138 | 1026.09 | 1564 | 1.61
298.15 K, x1 = 0.0302 | 1026.34 | 1559 | 1.76
298.15 K, x1 = 0.0813 | 1026.88 | 1556 | 2.79
298.15 K, x1 = 0.117 | 1026.93 | 1554 | 3.21
298.15 K, x1 = 0.1733 | 1026.39 | 1555 | 3.79
298.15 K, x1 = 0.2751 | 1023.97 | 1560 | 4.02
298.15 K, x1 = 0.3189 | 1022.57 | 1566 | 3.83
298.15 K, x1 = 0.3865 | 1019.96 | 1578 | 3.58
298.15 K, x1 = 0.5133 | 1015.18 | 1603 | 3.4
298.15 K, x1 = 0.6561 | 1010.89 | 1648 | 4.71
298.15 K, x1 = 0.8181 | 1009.29 | 1714 | 10.14
298.15 K, x1 = 0.926 | 1011.5 | 1776 | 17.25
298.15 K, x1 = 0.9642 | 1012.97 | 1799 | 20.16
298.15 K, x1 = 1 | 1015.86 | 1840 | 24.12
303.15 K, x1 = 0.0138 | 1024.21 | 1555 | 1.52
303.15 K, x1 = 0.0302 | 1024.48 | 1555 | 1.84
303.15 K, x1 = 0.0813 | 1024.64 | 1553 | 2.67
303.15 K, x1 = 0.117 | 1024.37 | 1554 | 3.1
303.15 K, x1 = 0.1733 | 1023.53 | 1555 | 3.42
303.15 K, x1 = 0.2751 | 1020.86 | 1561 | 3.62
303.15 K, x1 = 0.3189 | 1019.42 | 1566 | 3.55
303.15 K, x1 = 0.3865 | 1016.89 | 1579 | 3.18
303.15 K, x1 = 0.5133 | 1012.16 | 1602 | 2.7
303.15 K, x1 = 0.6561 | 1007.69 | 1645 | 3.42
303.15 K, x1 = 0.8181 | 1005.54 | 1713 | 8.21
303.15 K, x1 = 0.926 | 1006.58 | 1769 | 14.2
303.15 K, x1 = 0.9642 | 1007.74 | 1797 | 17
303.15 K, x1 = 1 | 1009.58 | 1824 | 19.6
308.15 K, x1 = 0.0138 | 1020.18 | 1530 | 1.5
308.15 K, x1 = 0.0302 | 1020.47 | 1533 | 1.81
308.15 K, x1 = 0.0813 | 1020.35 | 1536 | 2.61
308.15 K, x1 = 0.117 | 1019.88 | 1539 | 3.03
308.15 K, x1 = 0.1733 | 1018.8 | 1544 | 3.36
308.15 K, x1 = 0.2751 | 1015.91 | 1553 | 3.28
308.15 K, x1 = 0.3189 | 1014.49 | 1559 | 3.14
308.15 K, x1 = 0.3865 | 1011.99 | 1572 | 2.59
308.15 K, x1 = 0.5133 | 1007.46 | 1593 | 2.51
308.15 K, x1 = 0.6561 | 1003.25 | 1632 | 3.1
308.15 K, x1 = 0.8181 | 1000.89 | 1698 | 7.76
308.15 K, x1 = 0.926 | 1001.01 | 1753 | 13.1
308.15 K, x1 = 0.9642 | 1001.75 | 1776 | 14.98
308.15 K, x1 = 1 | 1002.61 | 1798 | 16.13
313.15 K, x1 = 0.0138 | 1015.8 | 1525 | 1.47
313.15 K, x1 = 0.0302 | 1016.2 | 1527 | 1.72
313.15 K, x1 = 0.0813 | 1016.66 | 1529 | 2.3
313.15 K, x1 = 0.117 | 1016.4 | 1530 | 2.78
313.15 K, x1 = 0.1733 | 1015.69 | 1535 | 3.04
313.15 K, x1 = 0.2751 | 1013.39 | 1543 | 2.98
313.15 K, x1 = 0.3189 | 1012.13 | 1548 | 2.83
313.15 K, x1 = 0.3865 | 1010.15 | 1561 | 2.38
313.15 K, x1 = 0.5133 | 1006.1 | 1582 | 2.34
313.15 K, x1 = 0.6561 | 1002.5 | 1616 | 3.01
313.15 K, x1 = 0.8181 | 1000.41 | 1669 | 7.08
313.15 K, x1 = 0.926 | 1000.32 | 1716 | 11.65
313.15 K, x1 = 0.9642 | 1000.61 | 1735 | 13.39
313.15 K, x1 = 1 | 1000.97 | 1752 | 14.81
